# According to ChEMBL document CHEMBL1157539, “Thousands of chemical starting points for antimalarial lead identification” (Nature, 2010):
# Tested on: Plasmodium falciparum
# Test: GSK_TCMDC: Inhibition of Plasmodium falciparum 3D7 in whole erythrocytes, using parasite LDH activity as an index of growth.
# Type: functional, organism-based
# Settings: Plasmodium falciparum, 3D7
row,Compound,XC50
1,CCN1CCC(N(Cc2ccc(-c3ccc(C(F)(F)F)cc3)cc2)C(=O)Cn2c(SCc3cccc(F)c3F)cc(=O)c3ccccc32)C1 (stereo unspecified),882 nM
2,COc1cc(Cc2cnc(N)nc2N)cc(OCCCCCCC(=O)O)c1OC,937 nM
3,CS(=O)(=O)c1ccc(-c2cnc(N)c(-c3ccc(O)cc3)c2)cc1,1360 nM
4,COc1ccc(-n2ccnc2SCC(=O)Nc2cc(C)ccc2C)c(OC)c1,205 nM
5,COc1cccc(Nc2nc(Nc3cccc(C#N)c3)cc(-c3ccncc3)n2)c1,764 nM
6,CCC(O)(C#Cc1c(C)nc(N)nc1N)CC,639 nM
7,O=C(CNC(=O)c1ccc(O)cc1)Nc1ccc(-c2cccc(-c3nc4cc(C(F)(F)F)ccc4[nH]3)c2)cc1,859 nM
8,CCN1CCN(c2cc(C)c3cc(NC(=O)c4cccc(OC)c4)ccc3n2)CC1,799 nM
9,CCN(C(=O)c1ccc(NC(=O)c2cccs2)cc1)c1nc2c(C)cccc2s1,850 nM
10,Cc1cccc2nc(-c3cccc(-c4cccc(NC(=O)C5CC(=O)Nc6ccccc65)c4)c3)[nH]c12 (stereo unspecified),64.6 nM
11,COc1cc(Nc2nccc(NCC(O)c3ccc(C(F)(F)F)cc3)n2)cc(OC)c1OC (stereo unspecified),920 nM
12,COc1cccc(C2(C)CCN(CCCCNC(=O)c3ccc(NC(=O)c4ccc(Cl)cc4)cc3)CC2)c1,831 nM
13,CN(C(=O)Nc1ccc(C(F)(F)F)cc1)C1CCN(CCCCCNC(=O)/C=C/c2ccc(Cl)c(Cl)c2)CC1,330 nM
14,Cc1cc(N(C)C2CCN(CC3CCCCC3)C2)nc(Nc2ccc(Br)cc2)n1 (stereo unspecified),703 nM
15,O=C(Oc1ccc(C2CNCCc3c2cc(OC(=O)c2ccc(O)cc2)c(OC(=O)c2ccc(O)cc2)c3Cl)cc1)c1ccc(O)cc1 (stereo unspecified),983 nM
16,CCOC(=O)c1cc(Cl)ccc1OCCCON1C(=N)N=C(N)NC1(C)C,3.2 nM
17,O=C1C([N+](=O)[O-])=C(O)c2c(F)cccc21,149 nM
18,COCn1ncc2cc(-c3cccc(NC(=O)c4csc(NC(C)=O)n4)c3)ccc21,987 nM
19,COC(=O)c1cccc(CNCc2ccc(-c3cccc(-c4nc5ccccc5[nH]4)c3)cc2)c1,261 nM
20,Cc1ccc(CNC(=O)[C@H](Cc2ccccc2)Nc2ccnc(NCC3CCCCC3)n2)cc1,1190 nM
21,Cc1ccc(C(=O)Cn2nc(-c3ccc(C)c(S(=O)(=O)N4CCCCC4)c3)ccc2=O)cc1,333 nM
22,O=[N+]([O-])c1ccc(-n2nc(-c3cccnc3)n(Cc3ccco3)c2=S)c(Cl)c1,200 nM
23,CC(=O)Nc1ccc(CNC2Cc3ccc(-c4ccc(Cl)c(Cl)c4)cc3C2)cc1 (stereo unspecified),998 nM
24,Cc1cccc2nc(-c3ccc(-c4ccc(CNCc5ccccc5)cc4)cc3)[nH]c12,508 nM

row,Compound,XC50
1,COc1ccc(Nc2ncc3c(-c4cccc(NC(=O)c5ccc(N)cc5)c4)c[nH]c3n2)cc1OC,975 nM
2,NC(=O)COc1c(C2CCN(CCCCNC(=O)c3ccc(-c4ccc(Cl)cc4)c(O)c3)CC2)ccc2c1CCCC2,706 nM
3,COc1cc2nc(N(C)Cc3cccc(I)c3)nc(N)c2cc1OC,863 nM
4,CC1(C)NC(N)=NC(=N)N1OCCCOc1c(Cl)cc(Cl)cc1Cl,2.94 nM
5,CCCCCCC(C)(C)c1cc(O)c2c(c1)OC(C)(C)c1ccncc1-2,178 nM
6,Cc1cc2[nH]c(-c3ccc(C(=O)NCCCN4CCN(c5cccc(Cl)c5)CC4)cc3F)nc2cc1Cl,479 nM
7,CCc1ccc(C2CCN(CCCCNC(=O)c3ccc(NC(=O)c4ccc(Cl)cc4)cc3)CC2)c(OC)c1,785 nM
8,CCn1cc(-c2nc(-c3cc(OC)cc(OC)c3)no2)c(=O)c2ccccc21,338 nM
9,O=C(/C=C/c1ccc(Cl)c(Cl)c1)NCCCCCCN1CCN(C(=O)Nc2cc(F)cc(F)c2)CC1,1070 nM
10,COc1ccc2nc(-c3cccc(C)n3)nc(Nc3ccncc3)c2c1,669 nM
11,CC(C)(C)OC(=O)N[C@@H](CS(=O)(=O)CCNC(=N)COCc1ccccc1)C(=O)OC(C)(C)C,821 nM
12,c1ccc2c(NCCCCCCNc3ccnc4ccccc34)ccnc2c1,191 nM
13,COc1ccc(Nc2nc(NCc3ccc(-n4ccnc4)cc3)cc(-c3ccc(OC)cc3)n2)cc1,827 nM
14,CC(C)Cn1cc(C2CCN(CCN3CCC(CNC(=O)c4ccc(NC(=O)c5cc(Cl)cc(Cl)c5)cc4)CC3)CC2)c2ccccc21,693 nM
15,Cn1cc(C2CCN(CCCCNC(=O)c3sc(-c4ccc(C(F)(F)F)cc4)nc3CO)CC2)c2ccccc21,1060 nM
16,CC1(C)C=C(c2ccncc2)c2cc(Cl)ccc2O1,430 nM
17,N=C(N)c1ccc(Oc2ccc(C(=N)N)cc2)cc1,317 nM
18,O=c1nc2[nH]c3ccccc3n2c(=O)[nH]1,174 nM
19,COC(=O)c1ccc(CN2CCC(N(Cc3cccc(Oc4ccccc4)c3)S(=O)(=O)c3ccc(NC(C)=O)cc3)CC2)cc1,1050 nM
20,Cc1cccc2nc(-c3ccc(-c4cccc(CN5CCN(c6ccc(C#N)cn6)CC5)c4)s3)[nH]c12,1420 nM
21,Cn1nc(-c2ccc(NC(=O)Nc3cc(C(F)(F)F)ccc3F)cc2)c2cnc(NCCc3c[nH]cn3)nc21,813 nM
22,CC[C@H]1CN2CCc3cc(OC)c(OC)cc3[C@@H]2C[C@@H]1C[C@H]1NCCc2c1cc(OC)c(O)c2I,216 nM
23,O=C(Nc1cccc(-c2ccc(-c3nc4cc(C(F)(F)F)ccc4[nH]3)cc2)c1)c1ccncc1,337 nM
24,N#Cc1cccc(NC(=O)C2=C(CCc3ccc4c(c3)OCO4)NC(=O)NC2c2cccc(C#N)c2)c1 (stereo unspecified),834 nM

row,Compound,XC50
1,CC(=O)Nc1ccc(CN2CCC(N(C)c3ccc(NC(=O)c4cccc(C)c4)cc3)CC2)cc1,986 nM
2,Nc1nc2c(ncn2OC[C@H](CO)OCP(=O)(O)O)c(=O)[nH]1,341 nM
3,Cc1nc(C)c(-c2ccc(-c3ccc(F)cc3)cc2)c(O)c1Cl,655 nM
4,CC(C)NCc1ccc(-c2cccc(CN3CCC(c4ccccc4)CC3)c2)c(C(=O)NCC2CCCCC2)c1,847 nM
5,NC1CCN(Cc2ccc(-c3cccc(-c4nc5ccccc5[nH]4)c3)cc2)C1 (stereo unspecified),849 nM
6,OCCN1CCN(Cc2cccc(-c3cccc(-c4nc5cc(F)ccc5[nH]4)c3)c2)CC1,706 nM
7,CC(C)(C)c1cc2cc(Nc3ccnc4cc(-c5nccs5)ccc34)ccc2[nH]1,441 nM
8,CCOC(=O)C(C(C)=O)C(c1ccccc1)C(C(C)=O)C(=O)OCC (stereo unspecified),748 nM
9,CC(=O)Nc1nc(C(=O)Nc2cccc(-c3ccc4c(cnn4CC4CC4)c3)c2)cs1,735 nM
10,COc1cccc(C(=O)C2CC2CN2CC=C(c3c(C)[nH]c4ccccc34)CC2)c1 (stereo unspecified),710 nM
11,Cc1cccc(CNc2nc(C)cc(N[C@@H](CC(C)C)C(=O)NCCOc3ccccc3)n2)c1,1080 nM
12,CCCCc1ccc(CCNCCCCCCNCCc2ccc(O)c(O)c2)cc1,1070 nM
13,COc1cc(C(=O)N2CCOC(CCN3CCc4c(c5ccccc5n4C)C3)(c3ccc(Cl)c(Cl)c3)C2)cc(OC)c1OC (stereo unspecified),357 nM
14,NCC1CCCN1Cc1ccc(-c2cccc(-c3nc4cc(F)ccc4[nH]3)c2)cc1 (stereo unspecified),751 nM
15,N#Cc1ccc2c(c1)CCN(CCC1CCC(NC(=O)c3ccc(-c4ccccc4)s3)CC1)CC2 (stereo unspecified),684 nM
16,Cc1ccc(C(=O)NC2CC2)cc1-c1ccc2c(cnn2S(=O)(=O)c2ccc(F)cc2)c1,289 nM
17,O=C(NC1CC1)c1ccc(Cn2c(SCc3cccc(Cl)c3)nc3ccccc3c2=O)cc1,422 nM
18,O=C(Nc1cccc(N2CCC(NCc3cnn(-c4cccc(F)c4)c3)CC2)c1)c1ccncc1,1390 nM
19,CN(CCN1CCCC1)c1nc2cc(-n3cnc4cc(-c5ccc(Cl)cc5)sc4c3=O)ccc2[nH]1,824 nM
20,Nc1nc(N)c2c(Cc3ccc(Br)cc3)cccc2n1,775 nM
21,CCNc1cc(C)nc(Nc2ccc(NC(=O)c3ccco3)cc2)n1,1090 nM
22,O=C(NC(=O)c1ccccc1O)c1ccccc1O,704 nM
23,COc1cccc2cc(C(=O)N[C@@H](CC(C)C)C(=O)N[C@H](C=NN3CC(=O)NC3=O)CC(C)C)oc12,920 nM
24,C=CCc1cc(Cc2cnc(N)nc2N)c2ccc(C)nc2c1O,1040 nM

row,Compound,XC50
1,NC1=NC(c2ccccc2)(c2ccccc2)C(=O)N1C1CCCCC1,661 nM
2,CC(C)C1=C[C@H]2C[C@]3(C4OCCO4)[C@@H]4CC[C@@H](C)[C@H]4C[C@@]2(C(=O)OCC2COCO2)[C@]13C(=O)OC(c1ccccc1)c1ccccc1 (stereo partly specified),855 nM
3,CCOC(=O)[C@H](Cc1cccc2ccccc12)NC(=O)[C@H](CCC(=O)OC(C)(C)C)NC(=O)c1ccc(N(C)Cc2cnc3nc(N)nc(N)c3n2)cc1,663 nM
4,COc1ccccc1CCNc1nc(C)cc(N[C@@H](Cc2ccccc2)C(=O)NCc2cccs2)n1,634 nM
5,Cc1ccc(C)c(Cn2ccc3nc(N)nc(N)c32)c1,301 nM
6,COc1ccc2c(NN=Cc3cccc(F)c3)ccnc2c1,207 nM
7,O=C(NC1CCC(CN2CCC(c3c[nH]c4ccccc34)CC2)CC1)c1ccc(-c2cc(C(F)(F)F)ccc2Cl)o1 (stereo unspecified),714 nM
8,Cc1[nH]c2cc(Cl)ccc2c1C1=CCN(CCN2CCOc3c(Br)cccc3C2=O)CC1,873 nM
9,CC(O)CNc1nc2ccccc2n1CC(=O)Nc1cccc(C(=O)Nc2cccc(C(F)(F)F)c2)c1 (stereo unspecified),103 nM
10,Nc1nc(N)c2c(Cl)c(N(Cc3ccccc3)Cc3ccccc3)ccc2n1,192 nM
11,Cc1cccc(Cn2c(C(N)=O)nn(-c3ccc([N+](=O)[O-])cc3C#N)c2=S)c1,731 nM
12,COC(=O)c1ccc(CC(C)NCC(O)c2cccc(Cl)c2Cl)cc1 (stereo unspecified),548 nM
13,Cc1cccc2nc(-c3ccc(-c4ccc(NC(=O)NCc5cccc(F)c5)cc4)s3)[nH]c12,887 nM
14,CC1CCN(CCNC(=O)c2ccc3c(=O)n(Cc4ccc(Cl)cc4)c(=S)[nH]c3c2)CC1,704 nM
15,Cc1[nH]cnc1-c1cccc(NC(=O)c2cc3ccccc3s2)c1,210 nM
16,Cn1cnc(CCNC(=O)c2ccc(-c3ccc(-c4nc5cc(F)ccc5[nH]4)cc3)cc2)c1,866 nM
17,O=C(/C=C/c1cccc(C(F)(F)F)c1)NCCCCCN1CCN(C(=O)Nc2ccc(Cl)c(Cl)c2)CC1,935 nM
18,O=C(Nc1cccnc1)c1cc(-c2cccnc2)nc2ccc(Br)cc12,640 nM
19,Oc1ccc(CN2CCC(NCc3cccc(C(F)(F)F)c3)CC2)cc1,685 nM
20,CNC(=O)c1ccccc1Nc1cc(Nc2cc(OC)ccn2)ncc1Cl,930 nM
21,O=c1cc(NCCCNCc2ccc(Cl)c(Cl)c2)[nH]c2ccc(Oc3ccccc3)cc12,850 nM
22,Cc1nc(-c2nc(NCc3ccc4c(c3)OCO4)ncc2-c2ccsc2)sc1C,103 nM
23,O=c1ccc2ccc(F)cc2n1CCN1CCC(NCc2ccc(-c3ccccn3)s2)CC1,887 nM
24,Cc1nc(Nc2ccc(F)cc2)nc(N2CCc3cc(O)ccc3C2C)c1C (stereo unspecified),754 nM
